Experiments:
[1] = in vivo; cited from earlier work
[2] = Acute toxicity (LD50) in mouse; conditions: in vivo
circulating system = conditions: cited from earlier work
patients = conditions: conventional use; cited from earlier work
urinary bladder = assay: Inner pressure of urinary bladder and urethra measured before and after administration (urodynamics); type: in vivo, human; conditions: some cases
Protocol: L-Threo-DOPS was administered (100 mg×3 times, a 4 weeks) to 13 patients with urinary incontinence in the clinic of urology. For estimating the effect on urinary incontinence and side effects, the patients were investigated medically before and after the treatment with L-Threo-Dops. The patients were 6 males and 7 females in the range of 35 to 76 years old, and were 51.8 years old in average. Further, by urodynamic study, the patients were classified into urgent urinary incontinence (7 patients), stress urinary incontinence (3 patients) and other condition (3 patients).

Harmalin-induced tremor = conditions: in vivo; cited from earlier work
[3] = test system: patients with urinary incontinence; assay: Clinical test of L-threo-DOPS in patients with urinary incontinence (clinical effect and side effects); type: in vivo, human
Protocol: L-Threo-DOPS was administered (100 mg×3 times, a 4 weeks) to 13 patients with urinary incontinence in the clinic of urology. For estimating the effect on urinary incontinence and side effects, the patients were investigated medically before and after the treatment with L-Threo-Dops. […] Further, by urodynamic study, the patients were classified into urgent urinary incontinence (7 patients), stress urinary incontinence (3 patients) and other condition (3 patients).

[4] = test system: aromatic L-amino acid decarboxylase; conditions: cited from earlier work
[5] = all 13 patients, 100 mg×3 times, 4 weeks
[6] = all of the cases, summary statement

N[C@H](C(=O)O)[C@H](O)c1ccc(O)c(O)c1 (relative stereo) [DL- or L-threo-DOPS, DL- or L-threo-3-(3,4-dihydroxyphenyl)serine]
Conversion into 1-NA after administration [1]: gradually converted into 1-NA
Distribution after administration [1]: distributed both centrally and peripherally

N[C@H](C(=O)O)[C@H](O)c1ccc(O)c(O)c1 (relative stereo) [active ingredient, DL- or L-threo-3-(3,4-dihydroxyphenyl)serine]
LD50 ([2]; ip, intraperitoneal): ~10000 mg/kg
LD50 ([2]; oral): ≥ 10000 mg/kg

NC[C@H](O)c1ccc(O)c(O)c1 [1-NA, 1-noradrenaline]
Duration (circulating system; after injection): shorter, rather instantaneous
Effects on circulating system (circulating system; immediately after injection): drastic effects on circulating system to cause hypertension and palpitation

CN(C)CCCN1c2ccccc2CCc2ccccc21 [Imipramine]
Side effects (patients): side effects such as thirst, constipation and nasal obstruction

N[C@H](C(=O)O)[C@H](O)c1ccc(O)c(O)c1 [L-threo-DOPS, L-threo-3-(3,4-dihydroxyphenyl)serine]
Volume of the urinary bladder (urinary bladder): increased volume of the urinary bladder was confirmed
Action on Harmalin-induced tremor (Harmalin-induced tremor): inhibitory action on Harmalin-induced tremor
Side effect ([3]; Case 1, 300 mg/day × 4 weeks): None
Side effect ([3]; Case 2, 300 mg/day × 4 weeks): None
Side effect ([3]; Case 3, 300 mg/day × 4 weeks): None
Side effect ([3]; Case 4, 300 mg/day × 4 weeks): None
Side effect ([3]; Case 5, 300 mg (3) × 4 weeks): None
Side effect ([3]; Case 6, 300 mg (3) × 4 weeks): None
Side effect ([3]; Case 7, 300 mg (3) × 4 weeks): None
Clinical effect ([3]; Case 7, urgent urinary incontinence, 300 mg (3) × 4 weeks): improved
Side effect ([3]; Case 8, 300 mg (3) × 4 weeks): None
Clinical effect ([3]; Case 8, stress incontinence, 300 mg (3) × 4 weeks): improved
Side effect ([3]; Case 9, 300 mg/day × 4 weeks): None
Clinical effect ([3]; Case 9, stress incontinence, 300 mg/day × 4 weeks): Improved
Side effect ([3]; Case 10, 300 mg/day × 4 weeks): None
Side effect ([3]; Case 11, 300 mg/day × 4 weeks): None
Side effect ([3]; Case 12, 300 mg/day × 4 weeks): None
Side effect ([3]; Case 13, 300 mg/day × 4 weeks): None
Clinical effect ([3]; Case 13, Enuresis, 300 mg/day × 4 weeks): Improved
Cases with disappearance of the symptoms or improvement to a moderate degree or more, total [3, 5]: 9 cases
Remaining cases in which L-threo-DOPS was almost ineffective [3, 5]: 4 cases
Side effects such as urine discharge disturbance, palpitation and hypertension ([3]; all cases, 100 mg×3 times, 4 weeks): not noted
Side effects [3, 6]: no side effects were noted
Tendency of dysuria [3, 6]: even tendency of dysuria was not noted
Cases with clinical effect of more than a slight improvement ([3]; all patients, 100 mg×3 times, 4 weeks): 10 out of 13
Cases with disappearance of the symptoms or improvement to a moderate degree or more ([3]; other condition, 100 mg×3 times, 4 weeks): 2 out of 3
Patient satisfaction ([3]; patients improved, 100 mg×3 times, 4 weeks): highly satisfactory
Cases with disappearance of the symptoms or improvement to a moderate degree or more ([3]; stress urinary incontinence, 100 mg×3 times, 4 weeks): 2 out of 3
Effect on urinary incontinence ([3]; summary statement): excellent effect on urinary incontinence
Cases with disappearance of the symptoms or improvement to a moderate degree or more ([3]; urgent urinary incontinence, 100 mg×3 times, 4 weeks): 5 out of 7
Decarboxylation by aromatic L-amino acid decarboxylase to natural 1-noradrenaline [4]: undergo decarboxylation by the action of aromatic L-amino acid decarboxylase to produce natural 1-noradrenaline
